# Results: patent US4136165A, “Cosmetic preparations with alkoxybenzoic acid esters as inflammation inhibitors and method” (Henkel Kommanditgesellschaft auf Aktien, priority 1976, dated 1979)
# Like-named read-outs stand apart in the source and are kept apart here.
# Assays:
# [1] = Orientating test of toxicity; conditions: in vivo
# Description: The alkoxybenzoic acid esters, to be used in accordance with the present invention, were tested for their inflammation-inhibiting properties in the experiments described hereinafter. An orientating test of their toxicity was first carried out in order to be able to establish the test dosages for further experiments.
# [2] = tested on: UV erythema in guinea pig; assay: Ultraviolet erythema test in guinea pigs; format: in vivo; conditions: 5% Tincture, mean of assessments six hours after radiation and the following morning
# Description: Guinea pigs were subjected to the ultraviolet erythema test in a further experiment. For this purpose, the hair was removed from the backs of the test animals by shearing and treatment with a depilatory cream. The test animals were then exposed to radiation for eight minutes, and the marked test areas were then treated with the test solutions or salves. A second application was effected after thirty minutes, and a third and the following treatments were effected at intervals of sixty minutes. Six hours after having been exposed to radiation, the animals were washed, dried and visually assessed.
# Assessment was repeated the following morning and the mean value for each substance was calculated from the two assessments. The two spots exposed to radiation directly behind the ears were chosen as reference points which had been exposed to radiation and which had not been treated. The intensity of the redness of these spots was equated with 0. Disappearance of the redness at the treated places was assessed by plus points up to +4 (no spots visible), and an intensification of the redness was assessed with minus points up to -4 (formation of blisters). The total of the assessments from the two evaluations, expressed in the ratio to the number of animals times 8 as the maximum attainable value (= 100%) gives the percentage inhibiting value of the substance. The inhibiting values ascertained in this manner are given in the following table under the heading "UR Erythema Guinea Pigs".
# [3] = tested on: UV edema in hairless mouse; assay: Ultraviolet test on hairless mice (UV edema, skin fold thickness); format: in vivo; conditions: 5% in Vaseline, skin fold thickness after 30 hrs
# Description: However, an ultraviolet test was carried out on hairless mice which also provide information concerning the efficacy of the substances for use as agents for treating sunburn. The backs of the hairless mice were exposed to radiation by an ultraviolet lamp for thirty minutes from a distance of 60 cm, thus causing a cutaneous inflammation. […] The dosage of the test substances was the same as in the rat's paw test. The degree of formation of edema was determined by measuring the skin fold thickness after thirty hours. The degree of the percentage inhibition of the erythema is given in the following Table I and was determined by comparing the change in the skin fold thickness, caused in treated test animals by exposure to radiation, with the change in the skin fold thickness in animals which, although exposed to radiation, had not been treated.
# Dextran edema, rat's paw = assay: Edema of the rat's paw test, dextran edema; format: in vivo; conditions: 1000 mg/kg p.o. thirty minutes before dextran, measured thirty minutes after dextran injection
# Description: The edema of the rat's paw test, as described by F. Kemper in "Arzneimittelforschung" 10 (1960), p. 777, was used as a test for assessing the compounds with respect to their suitability for inhibiting inflammation. In order to produce the edema, 0.1 ml of 6% dextran solution was injected to a depth of approximately 5 mm between the second and third toe of the right hind paw of the test animals. While only the dextran solution was administered to the control test animals, the various test substances were injected or administered per os to the test animals in the quantities given in Table I thirty minutes before the test animals were injected with the dextran solution. The volume of the paws was determined by means of the electrical volume measuring device described in detail by Kemper & Amelin in "Zeitschrift fur die gesamte experimentelle Medizin" 131 (1958), p. 407.
# The measurements were taken thirty minutes after the dextran solution injection. For the purpose of comparison, the left untreated paw was in each case measured at the said times. The amount of the swelling in animals which had been treated with the test substance and in non-treated animals thirty minutes after the dextran injection were used to calculate the degree of the inhibiting of the edema as a percentage of the swelling which occurred in animals which had not received any test substance.
# [4] = tested on: Carrageenin edema, rat's paw; assay: Rat's paw test, carrageenin edema (amputation methodology); format: in vivo; conditions: 1000 mg/kg p.o. one hour before initiating the inflammation, paws weighed three hours after carrageenin
# Description: The so-called amputation methodology, described by C. H. Winter in Journal of Pharmaceutical and Experimental Therapeutics, Vol. 141 (1963), page 369, was used as a further rat's paw test. In this method, the test animals are killed three hours after injecting the substance causing the inflammation, and the weights of the paws are ascertained. The product used to cause inflammation in these tests is carrageenin. The inhibiting of the development of the edema of the rats' paws by the test substance, which was administered orally one hour before initiating the inflammation,serves as an indication of the efficacy and is expressed in percentages.
Structure (SMILES),LD50 [1] [mg/kg],UV Erythema in Guinea Pig Inhibition [2] [%],UV Edema in Hairless Mouse Inhibition After 30 hrs [3] [%],"Rat's Paw Test Dextran Edema Inhibition (Dextran edema, rat's paw) [%]",Rat's Paw Test Carrageenin Edema Inhibition [4] [%],Orientating Toxicity [1],LD50 ([1]; read-out: Orientating Toxicity) [mg/kg]
"COc1ccc(C(=O)OCc2ccccc2)cc1 [Compound G, Benzyl Anisate]",> 1000,46,31,5,19,,
"COc1ccc(C(=O)OCC(C)(C)C)cc1 [Compound F, 2,2-Dimethyl-propyl Anisate]",,48,35,15,30,22 1.0 gm/kg,
"COc1ccc(C(=O)OC(C)(C)C)cc1 [Compound E, Tert.-Butyl Anisate]",,43,30,11,41,,> 1000
"CCCCOC(=O)c1ccc(OC)cc1 [Compound D, Butyl Anisate]",,51,36,9,11,,> 1000
"CCCOC(=O)c1ccc(OC)cc1 [Compound A, n-Propyl Anisate]",,60,49,25,12,,> 1000
"COc1ccc(C(=O)OC(C)C)cc1 [Compound C, Isopropyl Anisate]",,40,38,20,9,,> 1000
"COC(=O)c1ccc(OC)cc1 [Compound B, Methyl Anisate]",,31,41,28,18,,> 1000
